The source of these data is patent US7122328B2, “Gene involved in mineral deposition and uses thereof” (The Board of Trustees of the Leland Stanford Junior …, priority 2000, dated 2006).

The test concerns COS cells. Put plainly: Intracellular/extracellular pyrophosphate levels in transfected COS cells. The note with it: overexpression in tissue culture cells. Type of test: cell-based. The text has this:
Several protocols have previously been developed for measuring inorganic pyrophosphate in biological samples and any number of these are used in the in vitro assay. Some measure pyrophosphate hydrolysis to orthophosphate by calorimetry (McCarty et al., J. Lab. Clin. Med., 78:216–29 (1971)), while others use labeled substrates that couple with pyrophosphate in enzymatic reactions to determine pyrophosphate levels radiometrically (Cheung and Suhadolnik, Anal. Biochem., 83:61–3 (1977); Caswell and Russell, Biochim. Biophys. Acta, 847:40–7 (1985)). In another type of protocols, inorganic pyrophosphate is subjected to a series of coupled enzymatic phosphorylation and reduction to yield NADPH which can be quantified flourimetrically (Lust and Seegmiller, Clin. Chim. Acta, 66:241–9 (1976)). Although each of these can be used in the assay, the latter protocol is used with described modifications as follows.
COS cells grown in DMEM supplemented with 10% fetal bovine serum, 2 mM GlutaMax (Gibco), 0.1 mM non-essential amino acids, 100 units/ml Penicillin G, and 100 μg/ml Streptomycin are harvested and ˜1–2×10^6 cells are plated on a 100 mm tissue culture dish and incubated overnight at 37° C., 5% CO2. […]

For “wild type ANK gene product: wild type ANK protein overexpressed in tissue culture cells; multiple-pass integral membrane protein of 492 amino acids”, the extracellular pyrophosphate levels entry is “increase” and the intracellular pyrophosphate levels result was “dramatic reduction”.
